Read-outs that look alike come from different tables or passages of the source.
Columns and labels:
PC12 cells [1] = assay: Reversal of Aβ1-42-induced ATP depletion (ATPLite-M assay); conditions: for ATP decrease induced by Aβ1-42, Aβ1-42 control = 100% reduction: 24 h pre-incubation, 24 h; for effect on Aβ1-42-induced ATP decrease, in words: compound 1-100 μM, Aβ1-42 0.1-10 μM
PC12 cells [2] = assay: Aβ1-42-induced free radical production (2,7-DCF fluorescent probe); conditions: compound 1-100 μM 24 h pre-incubation; Aβ1-42 0.1-10 μM 24 h
PC12 cells [3] = assay: Neuroprotection against Aβ1-42 cytotoxicity, MTT assay (NADPH diaphorase activity); type: cell-based, rat
sigma-1 receptor = molecular target: T1, sigma-1 receptor (Homo sapiens, UniProt Q99720); assay: Displacement of [3H](+)pentazocine from sigma-1 receptor expressed in Jurkat cells; type: binding
T1 construct: sigma-1 receptor expressed in Jurkat cells; endogenous in cells; host or cells: Jurkat cells

σ2-receptor = σ2-receptor (Homo sapiens, UniProt Q5BJF2); assay: σ2-receptor binding
PC12 cells [4] = assay: Glutamate-induced excitotoxicity, MTT assay; type: cell-based, rat; conditions: glutamate 100 μM 24 h; for neuroprotective effect against glutamate-induced cell death (MTT), in words: compound 0.3-30 μM 24 h pre-incubation
HMG-CoA reductase mRNA = HMG-CoA reductase mRNA synthesis, real-time quantitative PCR; type: cell-based, rat
[5] = cited from earlier work
[6] = compound 1-100 μM, Aβ1-42 0.1-10 μM

T1 sequence (Q99720 whole entry): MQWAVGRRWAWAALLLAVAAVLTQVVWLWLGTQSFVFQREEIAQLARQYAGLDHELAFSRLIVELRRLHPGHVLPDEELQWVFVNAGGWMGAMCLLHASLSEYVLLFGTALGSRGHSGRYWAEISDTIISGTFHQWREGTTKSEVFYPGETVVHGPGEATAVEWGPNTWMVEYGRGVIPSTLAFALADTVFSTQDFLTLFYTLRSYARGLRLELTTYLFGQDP
Sequence of σ2-receptor (Q5BJF2 whole entry, species assumed): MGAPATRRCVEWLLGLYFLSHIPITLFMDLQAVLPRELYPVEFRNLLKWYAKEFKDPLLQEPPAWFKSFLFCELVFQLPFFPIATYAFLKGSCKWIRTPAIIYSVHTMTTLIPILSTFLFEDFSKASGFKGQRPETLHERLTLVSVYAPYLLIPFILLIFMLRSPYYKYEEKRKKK

Compound | ATP decrease induced by Aβ1-42, Aβ1-42 control = 100% reduction (PC12 cells [1]; compound 1 μM, Aβ1-42 0.1 μM) | ATP decrease induced by Aβ1-42, Aβ1-42 control = 100% reduction (PC12 cells [1]; compound 1 μM, Aβ1-42 1 μM) | ATP decrease induced by Aβ1-42, Aβ1-42 control = 100% reduction (PC12 cells [1]; compound 1 μM, Aβ1-42 10 μM) | ATP decrease induced by Aβ1-42, Aβ1-42 control = 100% reduction (PC12 cells [1]; compound 10 μM, Aβ1-42 0.1 μM) | ATP decrease induced by Aβ1-42, Aβ1-42 control = 100% reduction (PC12 cells [1]; compound 10 μM, Aβ1-42 1 μM) | ATP decrease induced by Aβ1-42, Aβ1-42 control = 100% reduction (PC12 cells [1]; compound 10 μM, Aβ1-42 10 μM) | ATP decrease induced by Aβ1-42, Aβ1-42 control = 100% reduction (PC12 cells [1]; compound 100 μM, Aβ1-42 0.1 μM) | ATP decrease induced by Aβ1-42, Aβ1-42 control = 100% reduction (PC12 cells [1]; compound 100 μM, Aβ1-42 1 μM) | ATP decrease induced by Aβ1-42, Aβ1-42 control = 100% reduction (PC12 cells [1]; compound 100 μM, Aβ1-42 10 μM) | effect on Aβ1-42-induced ATP decrease, in words (PC12 cells [1]) | effect on Aβ1-42-induced free radical production, in words (PC12 cells [2]) | protective effect against Aβ1-42 neurotoxicity (MTT), in words (PC12 cells [3]; [6]) | other results
CCN(CC)CC(=O)Nc1c(C)cccc1C [Lidocaine, (2-diethylamino)-N-(2,6-dimethylphenyl)-acetamide] | 38.7 ± 26.1 % | 62.0 ± 8.5 % | 53.5 ± 20.3 % | 47.2 ± 28.7 % | 69.0 ± 13.0 % | 65.0 ± 7.6 % | 65.3 ± 45.2% | 81.3 ± 8.7% | 70.1 ± 4.8 % | restored ATP concentrations in PC12 cells exposed to 0.1 and 1 μM Aβ1-42 | exhibited a trend to reduce the Aβ1-42-induced free radical production |  | 
CCN(CC)CCNC(=O)c1ccc(N)cc1 [Procainamide] | 46.8 ± 25.9 % | 51.4 ± 17.3 % | 56.5 ± 11.6 % | 60.4 ± 5.8 % | 61.7 ± 10.8 % | 56.2 ± 6.1 % | 40.9 ± 14.5 % | 40.8 ± 6.5 % | 52.2 ± 10.2 % | significantly prevented the Aβ1-42-induced decrease of intracellular ATP levels | exhibited a trend to reduce the Aβ1-42-induced free radical production |  | 
CCN(CC)CCOC(=O)c1ccc(N)cc1 [Procaine, 4-aminobenzoic acid 2-(diethylamino)ethyl ester] | 64.0 ± 24.4 % | 67.8 ± 13.8 % | 86.8 ± 5.5% | 56.0 ± 16.4 % | 97.0 ± 45.5% | 89.8 ± 5.1% | 42.8 ± 16.9 % | 69.6 ± 12.1 % | 83.6 ± 20.6% | protected against the 0.1 μM Aβ1-42-induced depletion of ATP concentrations in a dose-dependent manner | exhibited a trend to reduce the Aβ1-42-induced free radical production | important protective effect against 0.1 and 1 μM Aβ1-42 induced toxicity | reduction of the NADPH diaphorase inhibition induced by Aβ1-42 (PC12 cells [3]; 1 and 10 μM procaine): at least 30%; Hill coefficient (nH) (sigma-1 receptor): 1.0; IC50 (sigma-1 receptor): 4.3 µM; IC50 (σ2-receptor): > 10 µM; neuroprotective effect against glutamate-induced cell death (MTT), in words (PC12 cells [4]): prevented the glutamate-induced neurotoxicity in a biphasic manner; basal level of HMG-CoA reductase mRNA, in words (HMG-CoA reductase mRNA; control PC12 cells, no Aβ1-42): did not affect; level of HMG-CoA reductase mRNA induced by Aβ1-42, in words (HMG-CoA reductase mRNA; procaine 1 or 10 μM 18 h pre-incubation, Aβ1-42 1 μM 24 h): decreased in a dose-dependent manner; pKa [5]: 8.9
CCN1CCN(OC(=O)c2ccc(OC)c(OC)c2OC)CC1 [SP008, (4-ethylpiperazinyl-1-yl)-2′,3′,4′-trimethoxybenzoate] |  |  |  |  |  |  |  |  |  |  |  |  | neuroprotective effect against glutamate-induced cell death (MTT), in words (PC12 cells [4]): more important than that of procaine effect at the same concentration; concentration of maximum (peak) protective effect against glutamate (PC12 cells [4]; compound tested at 0.3-30 μM): 3 µM
CC(=O)OC1CC(O)C2(C)C(OC(C)=O)C3C(CC(C)C12)OC(=O)C3CN1CCN(C(=O)c2ccccc2)CC1 (stereo not drawn) [SP015, Acetic acid 7-acetoxy-3-(4-benzoyl-piperazin-1-yl-methyl)-5-hydroxy-4a, 8-dimethyl-2-oxo-dodecahydro-azuleno[6,5-b]furan-4-yl ester] | 46.3 ± 10.1 % | 55.6 ± 5.3 % | 32.8 ± 9.4 % | 99.2 ± 13.1% | 124 ± 24.7% | 104 ± 22.5% | 91.5 ± 1.5% | 85.6 ± 12.3% | 73.8 ± 6.8 % | able to reverse the effect of Aβ1-42 on ATP | amplified the Aβ1-42-induced free radicals production | protected only at 1 and 10 μM concentrations against the highest concentration of Aβ1-42 | 
CC(=O)OC1CC(OC(C)=O)C2(C)C(O)C3C(CC(C)C12)OC(=O)C3CN1CCN(C(=O)c2ccccc2)CC1 (stereo not drawn) [SP016, acetic acid 5-acetoxy-3-(4-benzoyl-piperazin-1-yl-methyl)-4-hydroxy-4a, 8-dimethyl-2-oxo-dodecahydro-azuleno[6,5-b]furan-7-yl ester] | 49.5 ± 10.2 % | 81.5 ± 4.2% | 96.8 ± 30.6% | 101 ± 7.8% | 105 ± 10.1% | 110 ± 10.1% | 86.3 ± 15.7% | 100 ± 17.8% | 121 ± 29.0% |  | amplified the Aβ1-42-induced free radicals production | no protective activity | 
CC1=CCC23OC2(C)CCC2C(CN4CCN(C(=O)c5ccccc5)CC4)C(=O)OC2C13 (stereo not drawn) [SP017, 3-(4-benzoyl-piperazin-1-yl-methyl)-6,6a-epoxy-6,9-dimethyl-3a,4,5,6,6a,7,9a,9b-octahydro-3H-azuleno[4,5-b]furan-2-one] | 28.1 ± 7.2 % | 42.6 ± 5.8 % | 73.0 ± 12.1 % | 54.9 ± 15.6 % | 44.9 ± 8.1 % | 68.9 ± 7.3 % | 115 ± 21.4% | 108 ± 20.8% | 122 ± 6.7% | able to reverse the effect of Aβ1-42 on ATP | amplified the Aβ1-42-induced free radicals production | at 100 μM potentiated the toxic effect of Aβ1-42 | efficacy range, inhibition of Aβ1-42 toxicity (mitochondrial diaphorase activity) (PC12 cells [3]): 30-70%
CCCCNc1ccc(C(=O)OCCN(C)C)cc1 [Tetracaine] | 54.8 ± 4.0 % | 32.2 ± 5.5 % | 45.5 ± 6.1 % | 59.5 ± 9.6 % | 58.0 ± 18.9 % | 41.9 ± 4.2 % | 59.3 ± 10.5 % | 45.4 ± 2.2 % | 45.8 ± 6.5 % | significantly prevented the Aβ1-42-induced decrease of intracellular ATP levels | exhibited a trend to reduce the Aβ1-42-induced free radical production |  | 
(+)-MK801 |  |  |  |  |  |  |  |  |  |  |  |  | protective effect against Aβ1-42 neurotoxicity (MTT), in words (PC12 cells [3]): lessens in a dose-dependent manner PC12 cell viability decrease induced by Aβ1-42
Aβ1-42: 42 amino acid β-amyloid peptide purchased from American Peptide Co., used as neurotoxic insult |  |  |  |  |  |  |  |  |  |  |  |  | HMG-CoA mRNA synthesis (HMG-CoA reductase mRNA; Aβ1-42 1 μM, 24 h, compared to control PC12 cells): 1.48±0.17 times the control level
